Source: patent US12479847B2 (DANA-FARBER CANCER INSTITUTE, INC., priority 2019, dated 2025)
Read-outs that look alike come from different tables or passages of the source.

Columns and labels:
Assay in all cases: KINOMEscan (ScanMAX) kinase profiling
Format in all cases: binding
panel of 468 kinases [1] = target: T1, panel of 468 kinases (Homo sapiens, UniProt P45983); details: JNK1; 1 μM; read-out: % control
T1 construct: purchased KINOMEscan (ScanMAX) service
Procedure: (§1) The kinase selectivity of inventive compounds 12, 75, and 77 was evaluated by KINOMEscan®. KINOMEscan® (ScanMAX™) analysis was performed against a near comprehensive panel of 468 kinases. The control percentage (% control) for inventive compounds at 1 μM in DMSO was determined by Equation 1: % control=(inventive compound−positive control)/(negative control−positive control)×100%, Equation 1
(§2) wherein the positive control is a compound with a % control value of 0% relative light units (RLU), and the negative control (i.e., DMSO) has % control value of 100% RLU. The enzyme selectivity in the present invention is defined as follows: inventive compounds are considered active for an enzyme when the observed % control is less than 35% (<35%).

panel of 468 kinases [2] = target: T2, panel of 468 kinases (Homo sapiens, UniProt P00519, F317I); details: 1 μM, read-out: % control
T2 construct: purchased KINOMEscan (ScanMAX) service
T2 sequence (P00519 whole entry F317I): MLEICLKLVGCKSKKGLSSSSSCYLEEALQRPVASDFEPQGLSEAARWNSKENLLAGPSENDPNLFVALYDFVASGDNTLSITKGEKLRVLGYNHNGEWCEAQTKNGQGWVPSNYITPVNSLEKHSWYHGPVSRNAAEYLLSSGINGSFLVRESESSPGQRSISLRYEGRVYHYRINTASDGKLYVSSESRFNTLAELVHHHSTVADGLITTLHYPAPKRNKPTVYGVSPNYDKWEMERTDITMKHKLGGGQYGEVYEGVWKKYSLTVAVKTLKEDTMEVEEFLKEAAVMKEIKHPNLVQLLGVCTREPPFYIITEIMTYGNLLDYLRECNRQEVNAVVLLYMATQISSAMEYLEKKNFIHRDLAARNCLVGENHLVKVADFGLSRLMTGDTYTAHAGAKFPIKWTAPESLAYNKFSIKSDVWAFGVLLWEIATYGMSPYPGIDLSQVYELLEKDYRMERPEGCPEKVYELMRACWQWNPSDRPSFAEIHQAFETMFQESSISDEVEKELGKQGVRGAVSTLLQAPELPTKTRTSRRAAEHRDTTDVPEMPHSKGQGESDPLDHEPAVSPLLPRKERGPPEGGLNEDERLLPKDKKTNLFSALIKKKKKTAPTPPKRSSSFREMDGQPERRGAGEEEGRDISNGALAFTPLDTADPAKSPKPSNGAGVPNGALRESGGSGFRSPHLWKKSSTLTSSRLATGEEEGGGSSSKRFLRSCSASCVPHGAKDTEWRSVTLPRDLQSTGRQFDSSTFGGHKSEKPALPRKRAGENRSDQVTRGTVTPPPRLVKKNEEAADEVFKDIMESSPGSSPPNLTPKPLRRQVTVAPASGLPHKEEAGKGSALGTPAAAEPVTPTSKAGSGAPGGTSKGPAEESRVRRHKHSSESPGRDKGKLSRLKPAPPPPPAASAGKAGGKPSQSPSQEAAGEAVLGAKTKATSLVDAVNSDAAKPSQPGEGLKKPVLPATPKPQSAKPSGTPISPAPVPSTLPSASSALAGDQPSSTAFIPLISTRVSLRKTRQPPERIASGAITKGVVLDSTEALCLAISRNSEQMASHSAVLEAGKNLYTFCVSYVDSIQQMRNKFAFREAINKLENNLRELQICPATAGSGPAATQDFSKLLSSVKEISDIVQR
Procedure: as §1, §2

panel of 468 kinases [3] = target: T3, panel of 468 kinases (Homo sapiens, UniProt Q96PY6); details: NEK1; 1 μM; read-out: % control
T3 construct: purchased KINOMEscan (ScanMAX) service
T3 sequence (Q96PY6 1-1258): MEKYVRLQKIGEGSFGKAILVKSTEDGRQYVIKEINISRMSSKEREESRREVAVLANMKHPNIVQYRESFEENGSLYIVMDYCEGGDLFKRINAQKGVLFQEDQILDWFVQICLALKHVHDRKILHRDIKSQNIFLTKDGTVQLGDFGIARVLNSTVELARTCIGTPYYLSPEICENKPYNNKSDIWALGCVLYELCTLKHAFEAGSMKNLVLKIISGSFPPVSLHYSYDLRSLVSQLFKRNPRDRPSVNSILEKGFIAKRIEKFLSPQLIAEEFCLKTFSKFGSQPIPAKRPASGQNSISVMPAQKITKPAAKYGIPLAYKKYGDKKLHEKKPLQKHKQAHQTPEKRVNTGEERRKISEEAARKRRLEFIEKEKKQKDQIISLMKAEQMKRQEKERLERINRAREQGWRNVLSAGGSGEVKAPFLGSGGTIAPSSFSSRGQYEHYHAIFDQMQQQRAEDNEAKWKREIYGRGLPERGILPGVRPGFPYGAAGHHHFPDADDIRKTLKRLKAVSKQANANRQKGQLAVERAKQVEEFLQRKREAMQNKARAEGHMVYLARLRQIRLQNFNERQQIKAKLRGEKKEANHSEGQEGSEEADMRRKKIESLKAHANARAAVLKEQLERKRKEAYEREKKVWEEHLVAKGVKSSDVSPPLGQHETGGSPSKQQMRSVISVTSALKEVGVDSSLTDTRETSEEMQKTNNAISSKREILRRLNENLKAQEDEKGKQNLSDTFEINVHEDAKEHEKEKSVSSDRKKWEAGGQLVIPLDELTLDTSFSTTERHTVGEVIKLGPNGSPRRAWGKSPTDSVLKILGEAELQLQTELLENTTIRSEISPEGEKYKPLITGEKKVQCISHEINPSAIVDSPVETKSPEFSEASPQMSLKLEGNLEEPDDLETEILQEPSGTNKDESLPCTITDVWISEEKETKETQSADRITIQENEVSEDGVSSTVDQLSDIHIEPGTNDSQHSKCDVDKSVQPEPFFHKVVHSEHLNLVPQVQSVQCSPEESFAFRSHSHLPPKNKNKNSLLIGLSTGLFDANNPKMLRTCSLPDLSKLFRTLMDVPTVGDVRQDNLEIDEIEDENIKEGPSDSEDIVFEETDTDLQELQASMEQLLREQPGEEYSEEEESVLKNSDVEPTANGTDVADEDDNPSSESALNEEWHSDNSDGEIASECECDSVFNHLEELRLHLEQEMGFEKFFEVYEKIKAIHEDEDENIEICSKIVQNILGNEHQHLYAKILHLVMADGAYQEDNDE
Procedure: as §1, §2

panel of 468 kinases [4] = target: T4, panel of 468 kinases (Homo sapiens, UniProt P22607); details: FGFR3; 1 μM; read-out: % control
T4 construct: purchased KINOMEscan (ScanMAX) service
T4 sequence (P22607 23-806): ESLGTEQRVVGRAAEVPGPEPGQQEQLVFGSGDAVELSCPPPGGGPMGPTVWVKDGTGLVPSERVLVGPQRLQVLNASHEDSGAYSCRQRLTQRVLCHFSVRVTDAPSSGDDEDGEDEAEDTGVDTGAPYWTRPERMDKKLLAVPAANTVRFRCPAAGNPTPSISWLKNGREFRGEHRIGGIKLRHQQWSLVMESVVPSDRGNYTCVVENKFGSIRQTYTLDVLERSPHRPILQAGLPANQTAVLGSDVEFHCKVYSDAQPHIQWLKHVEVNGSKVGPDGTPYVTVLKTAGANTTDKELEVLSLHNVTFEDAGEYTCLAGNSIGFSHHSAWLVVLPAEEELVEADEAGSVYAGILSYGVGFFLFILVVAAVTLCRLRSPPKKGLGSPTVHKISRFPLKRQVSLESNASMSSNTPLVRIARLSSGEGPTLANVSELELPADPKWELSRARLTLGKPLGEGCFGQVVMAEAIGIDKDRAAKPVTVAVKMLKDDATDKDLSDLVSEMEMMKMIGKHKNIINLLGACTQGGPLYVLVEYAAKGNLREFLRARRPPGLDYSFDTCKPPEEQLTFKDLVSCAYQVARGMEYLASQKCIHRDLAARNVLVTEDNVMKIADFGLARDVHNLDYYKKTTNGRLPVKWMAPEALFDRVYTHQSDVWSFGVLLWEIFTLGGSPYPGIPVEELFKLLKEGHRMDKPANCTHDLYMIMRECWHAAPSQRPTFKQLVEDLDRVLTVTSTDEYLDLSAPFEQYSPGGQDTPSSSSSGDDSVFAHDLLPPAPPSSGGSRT
Procedure: as §1, §2

panel of 468 kinases [5] = target: T5, panel of 468 kinases (Homo sapiens, UniProt Q9BRS2); details: RIOK1; 1 μM; read-out: % control
T5 construct: purchased KINOMEscan (ScanMAX) service
T5 sequence (Q9BRS2 1-568): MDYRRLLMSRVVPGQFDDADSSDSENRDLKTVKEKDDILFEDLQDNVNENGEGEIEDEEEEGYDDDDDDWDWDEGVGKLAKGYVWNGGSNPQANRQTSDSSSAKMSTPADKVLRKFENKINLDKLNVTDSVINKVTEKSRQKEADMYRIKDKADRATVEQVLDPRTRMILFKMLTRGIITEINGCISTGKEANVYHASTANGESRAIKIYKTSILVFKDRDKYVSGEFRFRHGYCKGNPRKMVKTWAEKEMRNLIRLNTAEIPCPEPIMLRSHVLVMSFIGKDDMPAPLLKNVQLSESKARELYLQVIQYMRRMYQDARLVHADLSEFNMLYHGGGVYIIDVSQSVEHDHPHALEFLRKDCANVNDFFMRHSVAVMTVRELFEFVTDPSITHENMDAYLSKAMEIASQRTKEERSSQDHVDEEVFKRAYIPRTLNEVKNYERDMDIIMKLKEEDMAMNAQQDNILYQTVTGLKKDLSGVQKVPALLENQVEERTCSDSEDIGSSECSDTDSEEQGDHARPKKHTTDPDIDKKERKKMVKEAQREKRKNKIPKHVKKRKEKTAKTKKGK
Procedure: as §1, §2

panel of 468 kinases [6] = target: T6, panel of 468 kinases (Homo sapiens, UniProt Q9Y463); details: DYRK1B; 1 μM; read-out: % control
T6 construct: purchased KINOMEscan (ScanMAX) service
T6 sequence (Q9Y463 whole entry): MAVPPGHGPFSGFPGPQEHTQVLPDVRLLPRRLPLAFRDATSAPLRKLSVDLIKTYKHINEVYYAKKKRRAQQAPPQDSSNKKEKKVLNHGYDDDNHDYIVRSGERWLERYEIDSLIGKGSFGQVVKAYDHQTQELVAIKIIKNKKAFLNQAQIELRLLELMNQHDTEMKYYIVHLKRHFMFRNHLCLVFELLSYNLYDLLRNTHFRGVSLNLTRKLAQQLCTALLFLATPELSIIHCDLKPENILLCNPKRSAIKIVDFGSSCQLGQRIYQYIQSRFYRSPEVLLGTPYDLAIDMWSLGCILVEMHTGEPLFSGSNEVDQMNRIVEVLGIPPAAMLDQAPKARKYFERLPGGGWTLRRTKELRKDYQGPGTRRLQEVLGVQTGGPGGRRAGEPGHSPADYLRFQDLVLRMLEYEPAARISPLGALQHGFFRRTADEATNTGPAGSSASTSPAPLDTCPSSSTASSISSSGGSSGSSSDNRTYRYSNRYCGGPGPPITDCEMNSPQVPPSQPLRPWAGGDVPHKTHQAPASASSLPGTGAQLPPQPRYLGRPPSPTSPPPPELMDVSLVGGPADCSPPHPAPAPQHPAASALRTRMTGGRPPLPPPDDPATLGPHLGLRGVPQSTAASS
Procedure: as §1, §2

T1 sequence (P45983 whole entry): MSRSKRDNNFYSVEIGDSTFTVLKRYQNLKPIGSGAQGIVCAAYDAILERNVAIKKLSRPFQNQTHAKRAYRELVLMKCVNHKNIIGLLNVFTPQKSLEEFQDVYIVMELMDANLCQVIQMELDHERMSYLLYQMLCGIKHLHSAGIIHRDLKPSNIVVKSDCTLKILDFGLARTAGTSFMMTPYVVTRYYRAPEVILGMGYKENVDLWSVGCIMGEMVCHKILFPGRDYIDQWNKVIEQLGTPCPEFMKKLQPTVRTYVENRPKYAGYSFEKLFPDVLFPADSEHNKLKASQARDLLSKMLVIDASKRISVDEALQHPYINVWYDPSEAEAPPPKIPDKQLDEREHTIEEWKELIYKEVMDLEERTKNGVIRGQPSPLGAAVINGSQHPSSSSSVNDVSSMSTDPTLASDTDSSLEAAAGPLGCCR

SMILES | remaining binding at 1 µM (panel of 468 kinases [1]) [%] | remaining binding at 1 µM (panel of 468 kinases [2]; ABL1(F317I)-nonphosphorylated) [%] | remaining binding at 1 µM (panel of 468 kinases [2]; ABL1(F317I)-phosphorylated) [%] | remaining binding at 1 µM (panel of 468 kinases [3]) [%] | remaining binding at 1 µM (panel of 468 kinases [4]) [%] | remaining binding at 1 µM (panel of 468 kinases [5]) [%] | remaining binding at 1 µM (panel of 468 kinases [6]) [%]
CNc1nc(Nc2ccc(C(=O)N3CCC(N4CCOCC4)CC3)c3c2OCO3)nc2[nH]cc(Cl)c12 [Compound 75, (7-((5-chloro-4-(methylamino)-7H-pyrrolo[2,3-d]pyrimidin-2-yl)amino)benzo[d][1,3]dioxol-4-yl)(4-morpholinopiperidin-1-yl)methanone] | 0.1 | 100 | 83 | 88 | 98 | 48 | 0
CNc1nc(Nc2ccc(S(=O)(=O)N3CCC(N4CCOCC4)CC3)cc2OC)nc2[nH]cc(Cl)c12 [Compound 12, 5-chloro-N2-(2-methoxy-4-((4-morpholinopiperidin-1-yl)sulfonyl)phenyl)-N4-methyl-7H-pyrrolo[2,3-d]pyrimidine-2,4-diamine] | 11 | 100 | 54 | 100 | 100 | 100 | 6.1
CNc1nc(Nc2ccc(P3(=O)CCN(C4CCOCC4)CC3)cc2OC)nc2[nH]cc(Cl)c12 [Compound 77, 4-(4-((5-chloro-4-(methylamino)-7H-pyrrolo[2,3-d]pyrimidin-2-yl)amino)-3-methoxyphenyl)-1-(tetrahydro-2H-pyran-4-yl)-1,4-azaphosphinane 4-oxide] | 0.65 | 100 | 51 | 98 | 100 | 98 | 13
